Experimental data reported in US10894788B2, “Inhibitors of cyclin-dependent kinases” (Kinnate Biopharma Inc., priority 2018, dated 2021).

target: CDK12 (Homo sapiens (Human), UniProt Q9NYV4); assay: Radiometric protein kinase assay (33PanQinase Activity Assay), Assay Condition B (thiol-free conditions); assay type: biochemical; settings: thiol-free conditions (1 mM TCEP, glutathione removed)
Description: Example 2—Assay Condition B (Thiol-Free Conditions)
The IC50 profile of compounds was determined using one protein kinase in a customized, thiol free assay. […] Prior to testing, the 1×10^−03 M stock solutions in column 2 of the master plates were subjected to a serial, semi-logarithmic dilution using 100% DMSO as a solvent. […] Column 1 and 7 were filled with 100% DMSO as controls. Subsequently, 2×10 microliter from each well of the serial diluted copy plates were aliquoted with a 96 channel pipettor into two identical sets of “compound dilution plates”. All plates were barcoded for automated identification and tracking purposes. […] All compounds were stored as powder until being solubilized in DMSO. Solubilized compounds were stored as 1×10^−02 M/100% DMSO stock solutions. Prior to the assay process, 90 microliters of H2O were added to each well of a set of compound dilution plates. To minimize potential precipitation, the H2O was added to each plate only a few minutes before the transfer of the compound solutions into the assay plates. Each plate was shaken thoroughly, resulting in compound dilution plates with a final of 10% DMSO. For each assay, 5 microliters of solution from each well of the compound dilution plates/10% DMSO were transferred into the assay plate. The final volume of the assay was 50 μl. All compounds were tested at 10 final assay concentrations in the range from 1×10^−05 M to 3×10^−10 M, in singlicate. The final DMSO concentration in the reaction cocktails was 1% in all cases. A radiometric protein kinase assay (33PanQinase® Activity Assay) was used for measuring the kinase activity of the protein kinase. All kinase assays were performed in 96-well FlashPlates™ from PerkinElmer (Boston, Mass., USA) in a 50 microliter reaction volume. The reaction cocktail was pipetted in four steps in the following order: 20 microliter of assay buffer (standard buffer)·5 microliter of ATP solution (in H2O)·5 microliter of test compound (in 10% DMSO)·20 microliter enzyme/substrate mix. […] For all experiments labeled as “Thiol-free”, all glutathione was exchanged from protein preparations so as to be removed from the assay and final buffer conditions contained no thiol-containing reagents. This was done so there would be no interference with the key cysteines in the proteins of interest.
For data analysis, the median value of the counts in column 1 (n=8) of each assay plate was defined as “low control”. This value reflects unspecific binding of radioactivity to the plate in the absence of a protein kinase but in the presence of the substrate. The median value of the counts in column 7 of each assay plate (n=8) was taken as the “high control”, i.e. full activity in the absence of any inhibitor. The difference between high and low control was taken as 100% activity. As part of the data evaluation the low control value from a particular plate was subtracted from the high control value as well as from all 80 “compound values” of the corresponding plate. The residual activity (in %) for each well of a particular plate was calculated by using the following formula: Res. Activity (%)=100×[(cpm of compound−low control)/(high control−low control)]
The residual activities for each concentration and the compound IC50 values were calculated using Quattro Workflow V3.1.1 (Quattro Research GmbH, Munich, Germany; www.quattro-research.com). […] The fitting method used was a least-squares fit. As a parameter for assay quality, the Z′-factor (Zhang et al., J. Biomol. Screen. 2: 67-73, 1999) for the low and high controls of each assay plate (n=8) was used. ProQinase's criterion for repetition of an assay plate is a Z′-factor below 0.4 (Iversen et al., J. Biomol. Screen. 3: 247-252, 2006).

CDK12, sequence (Q9NYV4 whole entry): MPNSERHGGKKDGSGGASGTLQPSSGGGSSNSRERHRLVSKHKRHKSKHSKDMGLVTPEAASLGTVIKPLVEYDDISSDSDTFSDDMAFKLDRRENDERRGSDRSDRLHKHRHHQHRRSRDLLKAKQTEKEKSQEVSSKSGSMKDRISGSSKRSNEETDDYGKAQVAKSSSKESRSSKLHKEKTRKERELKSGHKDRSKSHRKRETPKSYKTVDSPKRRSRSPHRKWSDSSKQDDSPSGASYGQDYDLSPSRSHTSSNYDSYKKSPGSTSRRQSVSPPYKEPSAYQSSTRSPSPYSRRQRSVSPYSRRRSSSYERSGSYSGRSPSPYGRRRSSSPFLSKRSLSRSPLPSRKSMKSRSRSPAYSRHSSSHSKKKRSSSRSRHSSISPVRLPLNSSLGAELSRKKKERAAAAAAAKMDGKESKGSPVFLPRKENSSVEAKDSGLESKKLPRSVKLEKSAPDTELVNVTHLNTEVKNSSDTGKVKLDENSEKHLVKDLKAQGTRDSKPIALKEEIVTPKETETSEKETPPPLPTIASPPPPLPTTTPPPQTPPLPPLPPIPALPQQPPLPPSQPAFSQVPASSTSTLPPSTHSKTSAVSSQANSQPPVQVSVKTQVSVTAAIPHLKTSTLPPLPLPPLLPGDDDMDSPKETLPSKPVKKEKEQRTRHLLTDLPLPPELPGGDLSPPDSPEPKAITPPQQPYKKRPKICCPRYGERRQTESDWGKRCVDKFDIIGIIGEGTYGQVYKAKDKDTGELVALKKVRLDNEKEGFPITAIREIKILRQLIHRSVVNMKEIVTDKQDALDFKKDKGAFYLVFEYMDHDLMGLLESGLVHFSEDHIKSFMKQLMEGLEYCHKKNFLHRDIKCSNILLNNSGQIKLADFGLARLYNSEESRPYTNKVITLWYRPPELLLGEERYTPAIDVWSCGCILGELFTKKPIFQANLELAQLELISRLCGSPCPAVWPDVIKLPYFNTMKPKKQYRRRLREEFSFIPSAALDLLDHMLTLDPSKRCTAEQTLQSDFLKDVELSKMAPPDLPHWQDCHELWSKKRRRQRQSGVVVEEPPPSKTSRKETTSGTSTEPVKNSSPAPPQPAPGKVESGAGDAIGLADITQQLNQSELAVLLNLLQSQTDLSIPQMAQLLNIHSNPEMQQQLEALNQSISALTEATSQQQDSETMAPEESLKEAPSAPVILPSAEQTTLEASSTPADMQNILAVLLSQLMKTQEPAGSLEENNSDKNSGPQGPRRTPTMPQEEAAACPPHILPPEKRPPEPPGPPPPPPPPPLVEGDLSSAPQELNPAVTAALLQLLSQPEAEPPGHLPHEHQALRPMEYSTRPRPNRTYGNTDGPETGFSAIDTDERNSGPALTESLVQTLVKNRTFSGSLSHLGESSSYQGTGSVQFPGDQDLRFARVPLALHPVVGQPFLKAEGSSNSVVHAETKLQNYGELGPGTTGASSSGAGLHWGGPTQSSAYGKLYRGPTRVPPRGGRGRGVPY
CDK12, sequence (O75909 whole entry partner): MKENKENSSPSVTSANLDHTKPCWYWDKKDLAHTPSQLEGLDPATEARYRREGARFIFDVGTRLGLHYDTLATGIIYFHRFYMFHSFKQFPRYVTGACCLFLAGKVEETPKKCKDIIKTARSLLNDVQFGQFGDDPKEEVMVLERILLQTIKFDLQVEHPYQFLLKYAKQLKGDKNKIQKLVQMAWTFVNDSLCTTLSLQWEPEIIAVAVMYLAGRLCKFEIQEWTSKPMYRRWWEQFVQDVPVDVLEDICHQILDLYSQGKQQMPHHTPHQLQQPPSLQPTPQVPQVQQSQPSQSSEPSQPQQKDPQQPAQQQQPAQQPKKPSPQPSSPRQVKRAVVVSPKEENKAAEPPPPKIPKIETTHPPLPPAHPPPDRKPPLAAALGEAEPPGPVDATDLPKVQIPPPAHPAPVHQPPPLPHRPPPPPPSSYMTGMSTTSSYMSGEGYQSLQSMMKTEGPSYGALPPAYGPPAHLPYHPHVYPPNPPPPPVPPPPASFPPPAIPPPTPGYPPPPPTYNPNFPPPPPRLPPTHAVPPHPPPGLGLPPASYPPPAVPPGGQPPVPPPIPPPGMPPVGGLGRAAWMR

SMILES	IC50 [nM]
C=CC(=O)Nc1ccc(C(=O)N2CC[C@@H](Nc3ncc(Cl)c(OC4CC4)n3)C2)cc1 [Example 56, (R)—N-(4-(3-((5-chloro-4-cyclopropoxypyrimidin-2-yl)amino)pyrrolidine-1-carbonyl)phenyl)acrylamide]	< 100
C=CC(=O)Nc1ccc(C(=O)N2CC[C@@H](Nc3ncc(C)cn3)C2)cc1 [Example 57, (R)—N-(4-(3-((5-methylpyrimidin-2-yl)amino)pyrrolidine-1-carbonyl)phenyl)acrylamide]	100 to 1000
C=CC(=O)Nc1ccc(C(=O)N2CC[C@@H](Nc3cnc(C(F)(F)F)cn3)C2)cc1 [Example 60, (R)—N-(4-(3-((5-(trifluoromethyl)pyrazin-2-yl)amino)pyrrolidine-1-carbonyl)phenyl)acrylamide]	100 to 1000
C=CC(=O)Nc1ccc(C(=O)N2CC[C@@H](Nc3cnc(C)cn3)C2)cc1 [Example 61, (R)—N-(4-(3-((5-methylpyrazin-2-yl)amino)pyrrolidine-1-carbonyl)phenyl)acrylamide]	1000 to 10000
C=CC(=O)N1CCOc2cc(C(=O)N3CC[C@@H](Nc4ncc(Cl)c(OC)n4)C3)ccc21 [Example 63, (R)-1-(7-(3-((5-chloro-4-methoxypyrimidin-2-yl)amino)pyrrolidine-1-carbonyl)-2H-benzo[b][1,4]oxazin-4(3H)-yl)prop-2-en-1-one]	100 to 1000
C=CC(=O)Nc1ccc(C(=O)N2CC[C@@H](Nc3ccc(Cl)cn3)C2)cc1 [Example 64, (R)—N-(4-(3-((5-chloropyridin-2-yl)amino)pyrrolidine-1-carbonyl)phenyl)acrylamide]	100 to 1000
C=CC(=O)N1CCCc2cc(C(=O)N3CC[C@@H](Nc4ncc(Cl)c(OC)n4)C3)ccc21 [Example 65, (R)-1-(6-(3-((5-chloro-4-methoxypyrimidin-2-yl)amino)pyrrolidine-1-carbonyl)-3,4-dihydroquinolin-1(2H)-yl)prop-2-en-1-one]	< 100
C=CC(=O)Nc1ccc(C(=O)N2CC[C@@H](Nc3ncc(Cl)c(OC)n3)C2)cc1N1CCOCC1 [Example 68, (R)—N-(4-(3-((5-chloro-4-methoxypyrimidin-2-yl)amino)pyrrolidine-1-carbonyl)-2-morpholinophenyl)acrylamide]	< 100
C=CC(=O)Nc1ccc(C(=O)N2CC[C@@H](Nc3ncc(Cl)cn3)C2)cc1-c1cnn(C)c1 [Example 69, (R)—N-(4-(3-((5-chloropyrimidin-2-yl)amino)pyrrolidine-1-carbonyl)-2-(1-methyl-1H-pyrazol-4-yl)phenyl)acrylamide]	100 to 1000
C=CC(=O)Nc1ccc(C(=O)N2CC[C@@H](Nc3ncc(F)c(OC4CC4)n3)C2)cc1 [Example 71, (R)—N-(4-(3-((4-cyclopropoxy-5-fluoropyrimidin-2-yl)amino)pyrrolidine-1-carbonyl)phenyl)acrylamide]	100 to 1000
C=CC(=O)Nc1ncc(C(=O)N2CC[C@@H](Nc3ncc(Cl)c(OC)n3)C2)s1 [Example 73, (R)—N-(5-(3-((5-chloro-4-methoxypyrimidin-2-yl)amino)pyrrolidine-1-carbonyl)thiazol-2-yl)acrylamide]	100 to 1000
C=CC(=O)Nc1ccc(C(=O)N2CC[C@@H](Nc3ncc(Cl)c(OC)n3)C2)cc1N1CCCCC1 [Example 74, (R)—N-(4-(3-((5-chloro-4-methoxypyrimidin-2-yl)amino)pyrrolidine-1-carbonyl)-2-(piperidin-1-yl)phenyl)acrylamide]	< 100
C=CC(=O)Nc1ccc(C(=O)N2CC[C@@H](Nc3ccc(C)cn3)C2)cc1 [Example 75, (R)—N-(4-(3-((5-methylpyridin-2-yl)amino)pyrrolidine-1-carbonyl)phenyl)acrylamide]	1000 to 10000
C=CC(=O)Nc1ccc(C(=O)N2CC[C@@H](Nc3ncc(Br)cn3)C2)cc1C [Example 76, (R)—N-(4-(3-((5-bromopyrimidin-2-yl)amino)pyrrolidine-1-carbonyl)-2-methylphenyl)acrylamide]	< 100
